Values joined by “and” are separate entries in the source; they are usually repeats but may differ in a detail not shown here. Identical values can stand only once.
How the values were obtained:
EP1R = EP1R (Homo sapiens, UniProt P34995); experiment: Radioligand (3H-PGE2) displacement assay at EP1R; type: binding
320 GPCRs [1] = target: 320 GPCRs (Homo sapiens, UniProt O00421); type: cell-based
320 GPCRs [2] = target: 320 GPCRs (Homo sapiens, UniProt O14804); type: cell-based
320 GPCRs [3] = target: 320 GPCRs (Homo sapiens, UniProt P08173); type: cell-based
320 GPCRs [4] = target: 320 GPCRs (Homo sapiens, UniProt P21453); type: cell-based
320 GPCRs (Homo sapiens, UniProt P21453), sequence (P21453 whole entry): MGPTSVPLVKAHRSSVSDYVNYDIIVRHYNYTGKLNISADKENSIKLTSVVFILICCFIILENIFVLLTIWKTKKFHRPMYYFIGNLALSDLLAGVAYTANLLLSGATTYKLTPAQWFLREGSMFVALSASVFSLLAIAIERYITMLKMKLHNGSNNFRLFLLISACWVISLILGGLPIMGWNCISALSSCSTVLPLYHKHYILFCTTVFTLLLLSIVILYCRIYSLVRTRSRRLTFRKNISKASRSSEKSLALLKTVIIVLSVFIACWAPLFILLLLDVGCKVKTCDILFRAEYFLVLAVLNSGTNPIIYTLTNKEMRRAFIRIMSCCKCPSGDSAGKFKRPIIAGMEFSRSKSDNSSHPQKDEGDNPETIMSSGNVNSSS

320 GPCRs [5] = target: 320 GPCRs (Homo sapiens, UniProt P21731); type: cell-based
320 GPCRs [6] = target: 320 GPCRs (Homo sapiens, UniProt P25100); type: cell-based
320 GPCRs (Homo sapiens, UniProt P25100), sequence (P25100 whole entry): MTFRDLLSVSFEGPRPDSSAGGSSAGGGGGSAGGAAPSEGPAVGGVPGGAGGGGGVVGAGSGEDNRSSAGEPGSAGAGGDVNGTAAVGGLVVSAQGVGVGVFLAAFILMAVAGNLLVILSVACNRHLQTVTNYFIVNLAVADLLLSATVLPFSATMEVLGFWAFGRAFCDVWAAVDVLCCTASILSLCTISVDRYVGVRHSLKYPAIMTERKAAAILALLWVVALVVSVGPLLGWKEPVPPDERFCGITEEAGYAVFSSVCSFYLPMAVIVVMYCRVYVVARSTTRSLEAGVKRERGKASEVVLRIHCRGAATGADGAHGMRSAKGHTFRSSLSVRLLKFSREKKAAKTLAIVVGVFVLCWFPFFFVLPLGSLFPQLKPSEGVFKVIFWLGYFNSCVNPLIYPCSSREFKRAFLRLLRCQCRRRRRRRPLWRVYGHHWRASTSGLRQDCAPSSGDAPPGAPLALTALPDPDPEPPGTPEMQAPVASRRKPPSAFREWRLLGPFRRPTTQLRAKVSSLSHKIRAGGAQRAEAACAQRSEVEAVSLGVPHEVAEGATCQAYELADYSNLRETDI

320 GPCRs [7] = target: 320 GPCRs (Homo sapiens, UniProt P32238); type: cell-based
320 GPCRs [8] = target: 320 GPCRs (Homo sapiens, UniProt P43116); type: cell-based
320 GPCRs [9] = target: 320 GPCRs (Homo sapiens, UniProt P43119); type: cell-based
320 GPCRs [10] = target: 320 GPCRs (Homo sapiens, UniProt P47211); type: cell-based
320 GPCRs [11] = target: 320 GPCRs (Homo sapiens, UniProt P47901); type: cell-based
320 GPCRs [12] = target: 320 GPCRs (Homo sapiens, UniProt P49019); type: cell-based
320 GPCRs [13] = target: 320 GPCRs (Homo sapiens, UniProt P49238); type: cell-based
320 GPCRs [14] = target: 320 GPCRs (Homo sapiens, UniProt Q13258); type: cell-based
320 GPCRs [15] = target: 320 GPCRs (Homo sapiens, UniProt Q13304); type: cell-based
320 GPCRs (Homo sapiens, UniProt Q13304), sequence (Q13304 whole entry): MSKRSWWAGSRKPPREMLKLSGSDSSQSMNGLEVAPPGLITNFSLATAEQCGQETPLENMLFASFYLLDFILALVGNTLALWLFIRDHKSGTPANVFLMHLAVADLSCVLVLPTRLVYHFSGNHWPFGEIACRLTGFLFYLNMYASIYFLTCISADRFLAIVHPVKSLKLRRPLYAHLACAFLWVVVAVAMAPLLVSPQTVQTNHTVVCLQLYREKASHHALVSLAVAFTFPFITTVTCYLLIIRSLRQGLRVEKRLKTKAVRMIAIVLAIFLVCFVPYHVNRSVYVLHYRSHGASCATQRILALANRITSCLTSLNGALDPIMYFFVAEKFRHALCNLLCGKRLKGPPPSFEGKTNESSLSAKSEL

320 GPCRs [16] = target: 320 GPCRs (Homo sapiens, UniProt Q14439); type: cell-based
320 GPCRs (Homo sapiens, UniProt Q14439), sequence (Q14439 whole entry): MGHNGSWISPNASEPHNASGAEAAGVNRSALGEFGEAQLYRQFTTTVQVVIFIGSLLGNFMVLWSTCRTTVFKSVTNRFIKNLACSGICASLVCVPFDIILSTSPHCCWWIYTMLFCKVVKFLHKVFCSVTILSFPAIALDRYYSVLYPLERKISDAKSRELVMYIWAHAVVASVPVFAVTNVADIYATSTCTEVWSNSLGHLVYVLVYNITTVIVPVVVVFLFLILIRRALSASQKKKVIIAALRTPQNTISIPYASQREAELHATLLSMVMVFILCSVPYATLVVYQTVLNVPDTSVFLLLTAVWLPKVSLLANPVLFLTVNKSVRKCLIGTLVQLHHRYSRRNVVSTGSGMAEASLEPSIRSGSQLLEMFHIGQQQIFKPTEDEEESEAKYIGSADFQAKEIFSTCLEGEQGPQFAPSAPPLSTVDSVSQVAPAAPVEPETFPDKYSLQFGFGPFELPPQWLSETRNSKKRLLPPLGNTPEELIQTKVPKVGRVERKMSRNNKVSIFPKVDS

320 GPCRs [17] = target: 320 GPCRs (Homo sapiens, UniProt Q8IZF4); type: cell-based
320 GPCRs (Homo sapiens, UniProt Q8IZF4), sequence (Q8IZF4 22-528): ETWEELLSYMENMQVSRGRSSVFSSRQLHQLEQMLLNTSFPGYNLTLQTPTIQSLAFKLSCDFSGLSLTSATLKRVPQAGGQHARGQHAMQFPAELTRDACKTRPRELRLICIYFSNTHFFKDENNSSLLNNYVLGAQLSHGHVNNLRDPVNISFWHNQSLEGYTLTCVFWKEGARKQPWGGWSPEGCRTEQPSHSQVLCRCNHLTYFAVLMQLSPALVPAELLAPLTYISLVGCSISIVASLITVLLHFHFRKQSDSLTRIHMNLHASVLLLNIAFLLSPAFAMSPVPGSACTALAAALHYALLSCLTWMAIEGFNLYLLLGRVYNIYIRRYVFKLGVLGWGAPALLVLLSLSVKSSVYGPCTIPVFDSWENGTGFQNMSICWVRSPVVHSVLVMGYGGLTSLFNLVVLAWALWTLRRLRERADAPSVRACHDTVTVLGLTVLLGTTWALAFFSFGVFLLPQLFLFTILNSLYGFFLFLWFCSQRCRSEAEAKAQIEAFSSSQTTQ

320 GPCRs [18] = target: 320 GPCRs (Homo sapiens, UniProt Q8NFN8); type: cell-based
320 GPCRs (Homo sapiens, UniProt Q8NFN8), sequence (Q8NFN8 whole entry): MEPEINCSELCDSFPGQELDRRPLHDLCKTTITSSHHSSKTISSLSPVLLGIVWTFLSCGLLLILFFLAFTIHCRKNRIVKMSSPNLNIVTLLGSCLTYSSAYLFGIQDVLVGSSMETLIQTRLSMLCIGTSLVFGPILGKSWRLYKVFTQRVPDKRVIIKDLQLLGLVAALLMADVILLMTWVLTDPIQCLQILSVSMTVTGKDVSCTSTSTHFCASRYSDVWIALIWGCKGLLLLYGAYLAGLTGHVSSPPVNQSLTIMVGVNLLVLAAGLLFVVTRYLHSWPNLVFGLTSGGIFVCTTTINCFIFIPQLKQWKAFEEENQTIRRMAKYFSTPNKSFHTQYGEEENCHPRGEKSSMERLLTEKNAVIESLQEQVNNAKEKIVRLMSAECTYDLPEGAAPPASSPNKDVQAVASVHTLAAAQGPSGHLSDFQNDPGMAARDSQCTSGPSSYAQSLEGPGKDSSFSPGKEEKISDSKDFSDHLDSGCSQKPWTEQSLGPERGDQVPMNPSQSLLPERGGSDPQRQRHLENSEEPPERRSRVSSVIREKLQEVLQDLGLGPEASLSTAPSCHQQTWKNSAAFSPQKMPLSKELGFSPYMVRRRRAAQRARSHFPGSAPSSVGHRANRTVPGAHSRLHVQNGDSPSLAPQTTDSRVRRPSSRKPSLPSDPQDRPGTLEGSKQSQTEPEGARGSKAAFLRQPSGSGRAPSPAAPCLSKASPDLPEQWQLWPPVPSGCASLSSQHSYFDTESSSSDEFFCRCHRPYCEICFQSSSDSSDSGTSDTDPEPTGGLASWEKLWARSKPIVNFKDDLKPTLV

320 GPCRs [19] = target: 320 GPCRs (Homo sapiens, UniProt Q8TDS4); type: cell-based
320 GPCRs (Homo sapiens, UniProt Q8TDS4), sequence (Q8TDS4 whole entry): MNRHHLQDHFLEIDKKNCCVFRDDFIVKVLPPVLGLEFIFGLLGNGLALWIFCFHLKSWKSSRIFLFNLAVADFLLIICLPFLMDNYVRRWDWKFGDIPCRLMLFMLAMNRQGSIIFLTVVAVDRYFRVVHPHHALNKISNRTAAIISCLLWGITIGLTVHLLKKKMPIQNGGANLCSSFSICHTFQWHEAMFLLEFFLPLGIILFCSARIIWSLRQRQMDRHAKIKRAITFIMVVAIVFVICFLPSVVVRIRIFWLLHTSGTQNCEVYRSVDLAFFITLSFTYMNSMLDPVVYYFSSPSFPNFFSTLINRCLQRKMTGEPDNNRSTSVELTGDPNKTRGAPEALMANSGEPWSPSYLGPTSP

320 GPCRs [20] = target: 320 GPCRs (Homo sapiens, UniProt Q8TDV5); type: cell-based
320 GPCRs [21] = target: 320 GPCRs (Homo sapiens, UniProt Q96G91); type: cell-based
320 GPCRs [22] = target: 320 GPCRs (Homo sapiens, UniProt Q96RI0); type: cell-based
320 GPCRs [23] = target: 320 GPCRs (Homo sapiens, UniProt Q96RI9); type: cell-based
320 GPCRs (Homo sapiens, UniProt Q96RI9), sequence (Q96RI9 whole entry): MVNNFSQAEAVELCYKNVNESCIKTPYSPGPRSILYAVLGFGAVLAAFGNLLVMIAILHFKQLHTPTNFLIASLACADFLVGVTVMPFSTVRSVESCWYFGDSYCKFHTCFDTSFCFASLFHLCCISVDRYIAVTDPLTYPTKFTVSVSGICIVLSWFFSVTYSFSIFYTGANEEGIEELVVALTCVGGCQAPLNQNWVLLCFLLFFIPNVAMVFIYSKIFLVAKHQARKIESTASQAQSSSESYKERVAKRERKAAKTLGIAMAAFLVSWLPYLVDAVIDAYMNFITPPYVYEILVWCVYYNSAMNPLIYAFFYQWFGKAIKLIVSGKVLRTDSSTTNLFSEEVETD

320 GPCRs [24] = target: 320 GPCRs (Homo sapiens, UniProt Q99677); type: cell-based
320 GPCRs (Homo sapiens, UniProt Q99677), sequence (Q99677 whole entry): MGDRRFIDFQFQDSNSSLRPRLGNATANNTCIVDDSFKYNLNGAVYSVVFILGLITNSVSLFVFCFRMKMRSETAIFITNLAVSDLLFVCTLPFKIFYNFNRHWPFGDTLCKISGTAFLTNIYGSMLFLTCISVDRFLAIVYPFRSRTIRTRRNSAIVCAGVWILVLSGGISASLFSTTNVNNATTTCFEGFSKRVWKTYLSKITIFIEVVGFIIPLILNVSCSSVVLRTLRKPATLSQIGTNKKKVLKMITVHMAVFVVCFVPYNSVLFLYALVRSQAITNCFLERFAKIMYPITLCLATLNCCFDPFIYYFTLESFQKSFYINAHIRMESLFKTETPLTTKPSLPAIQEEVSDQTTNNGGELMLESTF

320 GPCRs [25] = target: 320 GPCRs (Homo sapiens, UniProt Q99678); type: cell-based
320 GPCRs (Homo sapiens, UniProt Q99678), sequence (Q99678 whole entry): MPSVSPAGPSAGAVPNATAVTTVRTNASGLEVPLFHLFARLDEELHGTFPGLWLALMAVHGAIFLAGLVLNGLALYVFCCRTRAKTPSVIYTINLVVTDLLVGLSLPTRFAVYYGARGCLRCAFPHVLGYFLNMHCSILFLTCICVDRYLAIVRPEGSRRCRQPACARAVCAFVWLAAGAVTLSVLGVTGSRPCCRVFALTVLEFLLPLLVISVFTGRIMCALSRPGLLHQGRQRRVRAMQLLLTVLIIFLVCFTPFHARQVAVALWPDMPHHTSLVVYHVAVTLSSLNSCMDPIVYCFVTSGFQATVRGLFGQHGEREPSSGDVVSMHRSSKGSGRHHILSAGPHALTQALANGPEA

320 GPCRs [26] = target: 320 GPCRs (Homo sapiens, UniProt Q9H1C0); type: cell-based
320 GPCRs [27] = target: 320 GPCRs (Homo sapiens, UniProt Q9UKP6); type: cell-based
ALK = ALK (Homo sapiens, UniProt Q9UM73); experiment: biochemical; type: binding; conditions: 10000 nM; read-out: Percent Control
AURKA = AURKA (Homo sapiens, UniProt O14965); experiment: biochemical; type: binding; conditions: 10000 nM; read-out: Percent Control
AXL = AXL (Homo sapiens, UniProt P30530); experiment: biochemical; type: binding; conditions: 10000 nM; read-out: Percent Control
FGFR3 = FGFR3 (Homo sapiens, UniProt P22607); experiment: biochemical; type: binding; conditions: 10000 nM; read-out: Percent Control
FLT3 = FLT3 (Homo sapiens, UniProt P36888); experiment: biochemical; type: binding; conditions: 10000 nM; read-out: Percent Control
JNK3 = JNK3 (Homo sapiens, UniProt P53779); experiment: biochemical; type: binding; conditions: 10000 nM; read-out: Percent Control
[28] = target: T1, TYK2(JH1domain-catalytic) (Homo sapiens, UniProt P29597); experiment: KINOMEscan; type: binding
T1 construct: TYK2(JH1domain-catalytic); purchased Eurofins DiscoverX KINOMEscan (scanEDGE, 97 kinases)
T1 sequence (P29597 888-1187 limits assumed): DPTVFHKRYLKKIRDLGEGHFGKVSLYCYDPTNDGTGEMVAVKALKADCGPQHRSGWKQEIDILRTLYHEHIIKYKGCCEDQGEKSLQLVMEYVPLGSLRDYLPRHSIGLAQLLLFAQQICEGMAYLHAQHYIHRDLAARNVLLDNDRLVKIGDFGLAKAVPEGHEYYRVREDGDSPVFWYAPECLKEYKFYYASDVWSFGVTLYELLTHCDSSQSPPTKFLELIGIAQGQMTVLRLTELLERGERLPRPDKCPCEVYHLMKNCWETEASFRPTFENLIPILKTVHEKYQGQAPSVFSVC

320 GPCRs (Homo sapiens, UniProt O14804), sequence (O14804 whole entry): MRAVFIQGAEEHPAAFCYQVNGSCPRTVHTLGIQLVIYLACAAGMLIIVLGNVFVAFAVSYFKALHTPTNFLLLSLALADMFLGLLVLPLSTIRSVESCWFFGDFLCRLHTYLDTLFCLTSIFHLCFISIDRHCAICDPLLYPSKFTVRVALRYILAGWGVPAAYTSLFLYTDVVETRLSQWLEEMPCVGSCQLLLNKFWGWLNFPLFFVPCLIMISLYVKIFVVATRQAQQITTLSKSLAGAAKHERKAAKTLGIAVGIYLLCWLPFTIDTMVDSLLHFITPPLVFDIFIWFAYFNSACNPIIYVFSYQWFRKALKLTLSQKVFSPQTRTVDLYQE

SMILES: O=C(O)C1CCC2(CC1)CC(Nc1ncnc3[nH]c4c(F)cccc4c13)C2 (stereo not shown) [Compound 74, OC(=O)C1CCC2(CC(C2)NC=3N=CN=C4NC=5C(F)=CC=CC5C34)CC1]
- binding to EP1 receptor (EP1R): no binding
- RLU (Fold over Basal) (320 GPCRs [1]): 2.1 Fold over Basal and 1.6 Fold over Basal and 1.9 Fold over Basal and 2.4 Fold over Basal
- RLU (Fold over Basal) (320 GPCRs [2]): 1.3 Fold over Basal and 0.9 Fold over Basal and 1.4 Fold over Basal and 0.8 Fold over Basal
- RLU (Fold over Basal) (320 GPCRs [3]): 1.1 Fold over Basal and 1 Fold over Basal and 1.4 Fold over Basal and 1.2 Fold over Basal
- RLU (Fold over Basal) (320 GPCRs [4]): 1 Fold over Basal and 1.6 Fold over Basal and 1.5 Fold over Basal
- RLU (Fold over Basal) (320 GPCRs [5]): 1.2 Fold over Basal and 1.1 Fold over Basal and 0.7 Fold over Basal
- RLU (Fold over Basal) (320 GPCRs [6]): 1.5 Fold over Basal and 1.7 Fold over Basal and 1.6 Fold over Basal and 0.9 Fold over Basal
- RLU (Fold over Basal) (320 GPCRs [7]): 1.2 Fold over Basal and 0.7 Fold over Basal and 0.6 Fold over Basal and 1 Fold over Basal
- RLU (Fold over Basal) (320 GPCRs [8]): 1.1 Fold over Basal and 1.2 Fold over Basal and 2 Fold over Basal and 1.3 Fold over Basal
- RLU (Fold over Basal) (320 GPCRs [9]): 0.9 Fold over Basal and 0.6 Fold over Basal and 0.7 Fold over Basal and 1 Fold over Basal
- RLU (Fold over Basal) (320 GPCRs [10]): 0.8 Fold over Basal and 0.7 Fold over Basal and 0.9 Fold over Basal and 0.6 Fold over Basal
- RLU (Fold over Basal) (320 GPCRs [11]): 0.9 Fold over Basal and 1 Fold over Basal and 0.5 Fold over Basal
- RLU (Fold over Basal) (320 GPCRs [12]): 0.9 Fold over Basal and 0.7 Fold over Basal and 1 Fold over Basal
- RLU (Fold over Basal) (320 GPCRs [13]): 1 Fold over Basal
- RLU (Fold over Basal) (320 GPCRs [14]): 0.7 Fold over Basal and 1 Fold over Basal and 1.1 Fold over Basal
- RLU (Fold over Basal) (320 GPCRs [15]): 0.4 Fold over Basal and 0.6 Fold over Basal and 0.5 Fold over Basal
- RLU (Fold over Basal) (320 GPCRs [16]): 0.8 Fold over Basal and 1.3 Fold over Basal and 1 Fold over Basal
- RLU (Fold over Basal) (320 GPCRs [17]): 0.8 Fold over Basal and 1.1 Fold over Basal and 1.2 Fold over Basal
- RLU (Fold over Basal) (320 GPCRs [18]): 1.2 Fold over Basal and 1 Fold over Basal and 0.6 Fold over Basal
- RLU (Fold over Basal) (320 GPCRs [19]): 1.1 Fold over Basal and 1.6 Fold over Basal and 1.9 Fold over Basal and 1.5 Fold over Basal
- RLU (Fold over Basal) (320 GPCRs [20]): 0.5 Fold over Basal and 0.6 Fold over Basal and 0.8 Fold over Basal
- RLU (Fold over Basal) (320 GPCRs [21]): 1 Fold over Basal and 0.7 Fold over Basal and 1.1 Fold over Basal and 1.4 Fold over Basal
- RLU (Fold over Basal) (320 GPCRs [22]): 1 Fold over Basal and 0.7 Fold over Basal and 1.2 Fold over Basal
- RLU (Fold over Basal) (320 GPCRs [23]): 0.9 Fold over Basal and 1.1 Fold over Basal and 1.2 Fold over Basal
- RLU (Fold over Basal) (320 GPCRs [24]): 0.9 Fold over Basal and 0.7 Fold over Basal and 0.8 Fold over Basal
- RLU (Fold over Basal) (320 GPCRs [25]): 0.9 Fold over Basal and 1.6 Fold over Basal and 0.8 Fold over Basal
- RLU (Fold over Basal) (320 GPCRs [26]): 0.9 Fold over Basal and 0.8 Fold over Basal and 1.3 Fold over Basal
- RLU (Fold over Basal) (320 GPCRs [27]): 0.6 Fold over Basal and 0.7 Fold over Basal and 0.9 Fold over Basal
- remaining activity at 10 µM (ALK): 14%
- remaining activity at 10 µM (AURKA): 22%
- remaining activity at 10 µM (AXL): 47%
- remaining activity at 10 µM (FGFR3): 81%
- remaining activity at 10 µM (FLT3): 26%
- remaining activity at 10 µM (JNK3): 40%
- remaining binding at 10 µM ([28]; 10000 nM, read-out: Percent Control): 0%
- Signal (qPCR) ([28]; TYK2, [Compound] 0.0001 nM): 4e-6 and 3.91e-6
- Signal (qPCR) ([28]; TYK2, [Compound] 0.01 nM): 3.79e-6 and 3.64e-6
- Signal (qPCR) ([28]; TYK2, [Compound] 0.169 nM): 3.6e-6 and 3.79e-6
- Signal (qPCR) ([28]; TYK2, [Compound] 0.508 nM): 4.38e-6 and 4.26e-6
- Signal (qPCR) ([28]; TYK2, [Compound] 1.52 nM): 4.63e-6 and 4.29e-6
- Signal (qPCR) ([28]; TYK2, [Compound] 13.7 nM): 3.86e-6 and 3.5e-6
- Signal (qPCR) ([28]; TYK2, [Compound] 41.2 nM): 4.1e-6 and 3.94e-6
- Signal (qPCR) ([28]; TYK2, [Compound] 123 nM): 2.97e-6 and 3.29e-6
- Signal (qPCR) ([28]; TYK2, [Compound] 370 nM): 2.73e-6 and 2.71e-6
- Signal (qPCR) ([28]; TYK2, [Compound] 3330 nM): 6.46e-7 and 5.93e-7
- Signal (qPCR) ([28]; TYK2, [Compound] 10000 nM): 1.74e-7 and 2.08e-7
